Reference: the METLIN SMRT retention time set (Domingo-Almenara et al. 2019)

Experiment: gradient 5% acetonitrile 3 min, to 50% in 2 min, to 85% in 15 min, held 3 min, 100 µL/min
Conditions: column: Zorbax Extend-C18 2.1 x 50 mm; eluents: water / acetonitrile, 0.1% formic acid
Summary of the method: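 Over 3 months, pure standards in mixtures of ~100 molecules were run by HPLC coupled to a quadrupole time-of-flight mass spectrometer in positive and negative ionization mode. The column was a Zorbax Extend-C18 (2.1 × 50 mm, 1.8 μm) at 100 μL/min, eluted with water and acetonitrile each holding 0.1% formic acid, with 40 μL dead and 900 μL dwell volumes. Retention time was determined from adduct peaks chosen by software and checked manually.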

SMILES	RP-LC retention time
CCN1C(=O)C(C)(C(=O)NCc2ccc(F)c(Cl)c2)Oc2cccnc21 (centres undefined)	902 s
Cc1ccc(-c2nc(CN3CCN(C(=O)NC(C)C)CC3)c(C)o2)cc1	592 s
O=C(NC1CCc2nnc(C3CC3)n2CC1)c1cc(C2CC2)[nH]n1 (centres undefined)	581 s
CN(C)C(=O)c1n[nH]c2c1CN(C(=O)c1ccc(F)c(F)c1)CC2	634 s
O=C(O)c1cc(-c2ccc(Cl)s2)nc2ccccc12	1070 s
Cc1ccc(OCc2nc(C3CCNC3)no2)cc1 (centres undefined)	641 s
CCc1ccc(C(=O)Nc2nnc(SCc3nnc(-c4ccccc4)o3)s2)cc1	1000 s
Cc1ccc(S(=O)(=O)N2CCCOC2CNC(=O)C(=O)NCc2cccs2)cc1 (centres undefined)	806 s
Cc1cccc(CCNC(=O)Cc2csc3nc(-c4ccccc4)cn23)c1	810 s
COc1ccc2[nH]cc(CCNC(=O)c3cccc(Cl)c3)c2c1	840 s
Cc1noc(C)c1CNC(=O)C(C)Oc1cccc(Cl)c1 (centres undefined)	832 s
COC(=O)c1cc2c(=O)n(Cc3ccccn3)ccc2nc1C	638 s
CN1C2CCC1CC(OC(=O)c1cc(Cl)cc(Cl)c1)C2 (centres undefined)	669 s
O=C(NCc1cccc(Br)c1)c1csc(C(=O)N2CCCC2)n1	850 s
COCCNC(=O)CC1CCN(C(=O)c2[nH]c(C)c(C)c2C)CC1	657 s
CC(C)c1noc(C2CCCCN2Cc2cc(F)cc(F)c2)n1 (centres undefined)	1170 s
CCn1nc(CNC(=O)C(C)Oc2ccccc2OC)c2ccccc21 (centres undefined)	810 s
CCc1nc(-c2ccc3c(c2)CCN3C(=O)Cc2cc(OC)cc(OC)c2)no1	996 s
COc1ccc(CNC(=O)c2[nH]c3cc(C)sc3c2CN(C)C)cc1OC	641 s
CCn1cc(C(=O)N[C@@H](C)C(=O)O)c(=O)c2cc3c(cc21)OCO3	631 s
O=C(NCCCN1CCCCC1)c1csc(-c2ccc(N3CCCC3)nc2)n1	562 s

SMILES	RP-LC retention time
CCc1cc(C(=O)Nc2cc(F)ccc2C)nc2ccnn12	1090 s
COCCCNC(=O)c1nc2ccccn2c1-c1ccc(Cl)cc1	764 s
COc1ccc(-c2nc3cnccn3c2Nc2cccc(C)c2C)cc1	953 s
COc1ccc(CNC(=O)N2CCC(c3cc(N)on3)CC2)cc1	642 s
CC1CCN(C(=O)c2cn(-c3cc(-c4nc(C5CC5)no4)ccn3)cn2)CC1	907 s
Cc1cccc(NC(=O)Cn2ncc3c(c2=O)N(C2CC2)C(=O)CS3)c1C	714 s
COc1cccc(CNC(=O)Cc2csc3nc(-c4cccc(Br)c4)cn23)c1	925 s
Cc1ccc(-c2csc(NC(=O)CSc3nc4c(cc3C#N)CCC4)n2)cc1	1210 s
O=C(Cc1cccc(F)c1)Nc1nnc(SCc2nnc(-c3ccccc3)o2)s1	873 s
CC(C)NC(=O)C1CCCN(S(=O)(=O)c2cc(-c3noc(C4CCCC4)n3)cs2)C1 (centres undefined)	1050 s
C=C1C[C@H]2[C@@H]3CCC4=CC(=O)CC[C@@H]4[C@H]3CC[C@]2(C)[C@@]1(OC(C)=O)C(C)=O	1160 s
Cc1nn(C)cc1CN(C)C(=O)CC(c1ccccc1)c1ccccc1	765 s
CCn1nccc1-c1cccc(-c2noc(C3(c4ccc(OC)cc4)CC3)n2)c1	1240 s
Cc1ccc(-c2noc(CC(=O)NC(C)c3ccc(C)cc3C)n2)cc1 (centres undefined)	1080 s
Cc1nn(-c2nc3ccccc3[nH]2)c2c1C(=O)CC(c1ccc(C(C)C)cc1)C2 (centres undefined)	1230 s
CCCC(=O)Nc1ccc(CCc2nc3ccc(C(=O)NC4CCCC4)cc3[nH]2)cc1	650 s
CC1CCN(c2ncc3c(n2)CCN(Cc2ccc(OC(C)C)cc2)C3)CC1	807 s
CC(C)(C)c1cc(Br)ccc1OCC(=O)Nc1ncn[nH]1	797 s
CC(=O)Nc1cccc(C(=O)NCCc2c[nH]c3ccc(F)cc23)c1	711 s
COc1ccc(OC)c(CNC(=O)CCC(=O)N2CCCn3nc(-c4cccn4C)cc32)c1	755 s
Cc1ccc(/C=C/c2nc(-c3cccc(-c4ccnn4C)c3)no2)cc1	1270 s

SMILES	RP-LC retention time
CCN1C(=O)C2CC3(CCN(Cc4cn(C)c5ccc(OC)cc45)CC3)CN2C1=O (centres undefined)	584 s
Cc1cnn(Cc2cc(C(=O)N3C[C@@H](CO)[C@H](N(C)C)C3)no2)c1	566 s
Cc1ccc(NC(=O)C2CCN(c3nc(C4CCC4)nc4csc(C)c34)CC2)c(C)c1	804 s
CCOc1ccc(NC(=O)N2CCCC(Cn3c(C4CC4)nc4cccnc43)C2)cc1 (centres undefined)	689 s
CCOC(=O)C1CCN(Cc2nc3nc(C)cc(N4CCC(C)CC4)n3n2)CC1	642 s
O=C1NCCOCCCN(C(=O)Nc2ccccc2)[C@H]2CCCC[C@@H]12	672 s
O=C(CSc1nnc2c3sc(N4CCCC4)nc3ncn12)Nc1ccc2c(c1)OCO2	766 s
CCn1c(=O)c2c(cc(C)n2C)n(CC(=O)Nc2ccc(C)c(F)c2)c1=O	855 s
Cc1cn(C)nc1C(=O)Nc1nc2ccc(S(C)(=O)=O)cc2s1	699 s
COc1ccccc1CN1CCN(C(=O)C2CCc3nc(N4CCCCC4)ncc3C2)CC1 (centres undefined)	623 s
COCCN1C(=O)CCc2cc(NS(=O)(=O)c3ccc(OC)c(Cl)c3)ccc21	794 s
COc1ccc(N2C(=O)C3N=NN(Cc4nc(-c5cccc(C)c5)no4)C3C2=O)cc1 (centres undefined)	993 s
CC1CCN(C(=O)CC2CCN(S(=O)(=O)c3ccc(Cl)s3)CC2)CC1	1040 s
CCc1ccc(-c2cc3c(=O)n(Cc4noc(CN5CCC(C)CC5)n4)ccn3n2)cc1	757 s
COCc1nc(C2CCN(C(=O)Nc3ccc4c(c3)OCCO4)C2)no1 (centres undefined)	662 s
COc1cc(-c2noc(-c3nc(-c4ccccc4)no3)n2)cc(OC)c1OC	1070 s
CCOC(=O)c1c(C)[nH]c(C)c1S(=O)(=O)N1CCC(C(=O)NCCN2CCCCCC2)CC1	592 s
O=C(C1CCN(c2nnc(-n3cccc3)s2)CC1)N1CCN(c2ncccn2)CC1	738 s
Cc1nc2c(n1C)CN(C(=O)Cc1ccc(F)cc1)CC2	582 s

Results, then the compound that gave them:

RP-LC retention time	SMILES
779 s	COCc1nc(C2CCN(S(=O)(=O)c3ccc4c(c3)OCCO4)C2)no1 (centres undefined)
881 s	CCOC(=O)C1CCN(C(=O)c2nnc(-c3ccc(S(=O)(=O)N4CCCC4)cc3)o2)CC1
1130 s	O=S(=O)(c1cccc(Br)c1)N1CCc2nc(-c3ccccc3)ncc2C1
766 s	Cc1ccc(Cl)cc1NC(=O)CSc1ccc(N2CCOCC2)nn1
848 s	O=C(NC1CC1)c1ccc(OCC2CCCN(C(=O)c3ccc(F)cc3F)C2)cc1 (centres undefined)
748 s	CCCNC(=O)C1CCCN(c2ccc(SCC(=O)Nc3ccc(C)c(Cl)c3)nn2)C1 (centres undefined)
642 s	Cc1nn(-c2ccc(Cl)cc2)c(C)c1S(=O)(=O)N1CCC(C(=O)N2CCN(C)CC2)CC1
942 s	O=C(NCc1ccco1)c1ccc2c(c1)N(Cc1ccccc1)C(=O)CO2
891 s	Cc1noc(-c2cc(=O)n(CC(=O)NCc3ccc(F)cc3Cl)c3ccccc23)n1
806 s	O=C1CCCCC(Cc2ccccc2)(C(=O)NCCc2ccccc2)N1 (centres undefined)
822 s	Cc1ccc(N2C=C(C(=O)N3CCOCC3)S(=O)(=O)c3ccc(F)cc32)cc1F
920 s	O=C(NC1CCCc2ccccc21)c1ccc(-n2nc(N3CCCC3)ccc2=O)cc1 (centres undefined)
794 s	O=S(=O)(c1cccc(C(F)(F)F)c1)N1CCOCC1
861 s	O=c1ccc(N2CCCN(S(=O)(=O)c3ccc(F)c(F)c3)CC2)nn1-c1ccccc1
646 s	Cc1ccccc1OCCCCn1c(CN2CCOCC2)nc2ccccc21
871 s	CCn1cnc(S(=O)(=O)N2CCCC(C(=O)Nc3cccc(C(F)(F)F)c3)C2)c1 (centres undefined)
768 s	N#Cc1ccc(C(=O)NC2CC(=O)N(Cc3ccccc3)C2)cc1 (centres undefined)
609 s	O=C(NCCCN1CCCC1)C1CCN(Cc2cc3ccccc3n2Cc2ccccc2Cl)CC1
1160 s	Cc1ccc(-c2noc(-c3ccccc3S(=O)(=O)N3CCN(c4ncccn4)CC3)n2)cc1
956 s	CC(NC(=O)CN1C(=O)C2CCCCN2c2ccc(S(=O)(=O)N3CCCC3)cc21)c1ccccc1 (centres undefined)
925 s	Cn1nc(-c2nc(C3CC3)no2)c2c1CCN(S(=O)(=O)c1ccc(F)cc1)C2
898 s	COCCN1C(=O)Cc2ccccc2C1C(=O)NCc1ccc(Cl)cc1 (centres undefined)
860 s	Cc1ccc(C)c(N2CCN(c3ccnc(SCC(=O)Nc4ccccc4)n3)CC2)c1
880 s	Cc1csc(-c2cc(S(=O)(=O)Nc3ccc(F)cc3F)cn2CC(=O)N2CCCC2)n1
1020 s	COc1ccc(-c2cc(C(=O)Nc3ccc(Cl)cc3)nn2C2CCS(=O)(=O)C2)cc1 (centres undefined)
890 s	Cc1oc(C2CCN(S(=O)(=O)c3ccc(F)cc3)CC2)nc1C(=O)N1CCCC1
1050 s	CC(C)c1ccc(S(=O)(=O)N2CCC(C)(C(=O)NCc3ccccc3)CC2)cc1
659 s	CC(C)CNC(=O)C1CCCN(c2ccnc(-c3ccc(F)cc3)n2)C1 (centres undefined)
